{"source": "patent US20240156856A1", "about": "“NOVEL APPLICATIONS OF HYALURONIC ACID FOR TREATMENT OF PAIN AND PRURITIS” (THE REGENTS OF THE UNIVERSITY OF CALIFORNIA, priority 2022, published 2024)", "key": {"[1]": {"test_system": "rats with bortezomib CIPN", "experiment": "Bortezomib CIPN mechanical hyperalgesia, Randall-Selitto paw-withdrawal test", "format": "in vivo, Sprague-Dawley rats", "details": "male rats; bortezomib 0.2 mg/kg i.v., 4 doses, day 7", "method": "(§1) Experimental animals. Experiments were performed on 220-400 g male and female Sprague-Dawley rats, purchased from Charles River Laboratories (Hollister, CA, USA), housed three per cage, under a 12-hour light/dark cycle, in a temperature- and humidity-controlled animal care facility at the University of California, San Francisco. Food and water were available ad libitum. Experimental protocols were approved by the University of California, San Francisco, Institutional Animal Care and Use Committee, and adhered to the National Institutes of Health Guidelines for the care and use of laboratory animals.\n(§2) Measurement of nociceptive threshold. Mechanical nociceptive threshold was quantified with an Ugo Basile Analgesymeter (Stoelting, Wood Dale, IL, USA), used to perform the Randall-Selitto paw-withdrawal test [61; 68; 69]. This device uses a dome-shaped plinth to apply a mechanical force that increases linearly with time, to the dorsum of a rat's hindpaw. To perform the Randall-Selitto paw-withdrawal test, rats were placed in cylindrical acrylic restrainers with lateral ports that allow access to the hind paw, as described previously. Rats were acclimatized to the testing procedure by placing them in restrainers for 1 h per day for 3 consecutive daily training sessions, and for 30-40 min prior to experiments.\nMechanical nociceptive threshold is defined as the force, in grams, applied by the plinth to the dorsum of the hindpaw, at which a rat withdraws its paw from the stimulus. Baseline paw-withdrawal threshold is defined as the mean of three readings taken before administration of test agents. To minimize experimenter bias, individuals conducting experiments were blinded to experimental treatments. Each experiment was performed on a different group of rats. Data are presented as mechanical nociceptive threshold, in grams (g) or percentage change from preintervention baseline. […]"}, "[2]": {"test_system": "rats with oxaliplatin CIPN", "experiment": "Oxaliplatin CIPN mechanical hyperalgesia, Randall-Selitto paw-withdrawal test", "format": "in vivo, Sprague-Dawley rats", "details": "for CIPN hyperalgesia, effect of hyaluronan molecular weight range: male rats with oxaliplatin CIPN, topical, combined with DMSO", "method": "as §1, §2\n(§3) Mechanical nociceptive threshold is defined as the force, in grams, applied by the plinth to the dorsum of the hindpaw, at which a rat withdraws its paw from the stimulus. Baseline paw-withdrawal threshold is defined as the mean of three readings taken before administration of test agents. To minimize experimenter bias, individuals conducting experiments were blinded to experimental treatments. Each experiment was performed on a different group of rats. Data are presented as mechanical nociceptive threshold, in grams (g) or percentage change from preintervention baseline.\n(§4) Hyaluronans were initially dissolved in distilled water (dH2O) at a concentration of 10 μg/μL, stock solution, and further diluted by adding DMSO with three final concentrations of hyaluronan (1, 2 and 4 μg/μL), protamine or terpene; unless otherwise stated, the final concentration of DMSO was 75%. The DMSO vehicle was 75% DMSO in 0.9% saline. In one experiment, 500-1200 kDa hyaluronan was administered topically in 0.9% saline vehicle. PGE2 was dissolved in 0.9% saline at the same final concentration that we previously injected intradermally (100 ng/5 μL). In the experiments in which hyaluronan was dissolved in protamine or terpene vehicle, protamine was first dissolved in distilled water (dH2O) to a concentration of 5 μg/μ1, stock solution of hyaluronan was combined with protamine at the final concentration of 2 μg/μ1, in a volume of 3 μl, for topical administration; terpene was first dissolved in dH2O at the concentration of 2 μg/μ1, then hyaluronan was dissolved in stock solution of terpene to its final concentration of 2 μg/μ1, in a volume of 3 μl, for topical administration).\nOxaliplatin CIPN: Oxaliplatin was freshly dissolved in 0.9% saline at a concentration of 2 mg/mL just prior to its tail vein intravenous (i.v.) administration (1 mL/kg), to rats briefly anesthetized with isoflurane (2.5% in O2).\nHyaluronans (30 μL) were administered topically on the dorsum of the hind paw, dispensed from a P200 pipette (Gilson, Middleton, WI, USA) with a plastic pipette tip and then spread manually. […]\n(§5) Before use, ODNs were reconstituted in nuclease-free 0.9% saline and then administered by the intrathecal (i.t.) route. As described previously, rats were anesthetized with isoflurane (2.5% in O2) and 120 μg of ODN, in a volume of 20 μL, injected i.t., using a syringe ([…]) attached to a 29-gauge hypodermic needle that was inserted into the subarachnoid space, between the L4 and L5 vertebrae. The i.t. site of the injectate was confirmed by a sudden flick of the rat's tail, a reflex evoked by subarachnoid space access and bolus i.t. injection. […]"}, "rats": {"test_system": "rats", "details": "previously shown; cited from earlier work"}, "[3]": {"test_system": "PGE2 hyperalgesia in male and female rats", "experiment": "PGE2-induced mechanical hyperalgesia, Randall-Selitto paw-withdrawal test", "format": "in vivo, Sprague-Dawley rats", "details": "100 ng intradermally, dorsum of hind paw, male and female rats", "method": "as §1, §2, §3\nHyaluronans were initially dissolved in distilled water (dH2O) at a concentration of 10 μg/μL, stock solution, and further diluted by adding DMSO with three final concentrations of hyaluronan (1, 2 and 4 μg/μL), protamine or terpene; unless otherwise stated, the final concentration of DMSO was 75%. The DMSO vehicle was 75% DMSO in 0.9% saline. In one experiment, 500-1200 kDa hyaluronan was administered topically in 0.9% saline vehicle. PGE2 was dissolved in 0.9% saline at the same final concentration that we previously injected intradermally (100 ng/5 μL). […]"}, "[4]": {"test_system": "5-HT-induced scratching behavior in rats", "experiment": "5-HT-induced scratching (itch) behavior", "format": "in vivo", "details": "topical 100 μg in 50 μl 75% DMSO in water, 30 and 5 mins before 5-HT 200 μg i.d.", "method": "Topical hyaluronan attenuates itch behavior in rats. Intradermal administration of serotonin (5-HT) elicited acute scratching behavior, using the method of Nojima and Carstens {Nojima and Carstens, 2003, #99335; PMID: 12814838}. Rats were acclimated to a testing chamber for 30 min, and then briefly anesthetized with 2% isoflurane, during which the fur over the nape of the neck was shaved, and 5-HT (200 μg in 10 μl 0.9% saline vehicle) injected with a 30 gauge needle. In the topical hyaluronan group, hyaluronan (100 μg in 50 μl 75% DMSO in water vehicle) was applied to the skin 30 mins and again 5 mins before administration of 5-HT. Rats were placed back into testing chambers and their behavior video recorded for 40 min. Number of hind paw scratches directed at the injection site were counted by watching video playback at half normal speed, and total number of scratches in 2-min intervals recorded. Rats were treated with 5-HT alone and topical hyaluronan with 5-HT, with 4 days between experimental sessions, allowing for use of paired t-tests to compare data. Data are presented as cumulative number of scratches (FIG. 9A), and as total scratches over the 40-min observation period (FIG. 9B). […] See also, FIG. 10, which includes additional data showing that topical hyaluronan attenuates 5-HT-induced scratching behavior. […] Data are presented as cumulative number of scratches."}, "[5]": {"test_system": "rats with paclitaxel CIPN", "experiment": "Paclitaxel CIPN mechanical hyperalgesia, Randall-Selitto paw-withdrawal test", "format": "in vivo, Sprague-Dawley rats", "details": "male rats; paclitaxel 1 mg/kg i.p., 4 doses, day 7", "method": "as §1, §2, §3, §4\nPaclitaxel CIPN: Paclitaxel was dissolved in Cremophor EL and ethanol (1:1) [1; 6; 20; 22] and diluted in 0.9% saline to a concentration of 1 mg/mL, just prior to its intraperitoneal (i.p.) administration (1 mg/kg, i.p.) [19; 42] to rats briefly anesthetized with isoflurane (2.5% in O2), every other day for a total of 4 doses.\nHyaluronans (30 μL) were administered topically on the dorsum of the hind paw, dispensed from a P200 pipette (Gilson, Middleton, WI, USA) with a plastic pipette tip and then spread manually.\nAntisense oligodeoxynucleotides (ODNs).\nas §5, with “vertebrae.” for “vertebrae. The i.t. site of the injectate was confirmed by a sudden flick of the rat's tail, a reflex evoked by subarachnoid space access and bolus i.t. injection.”"}}}
{"compound": "CC(C)C[C@H](NC(=O)[C@H](Cc1ccccc1)NC(=O)c1cnccn1)B(O)O", "note": "[Bortezomib, bortezomib, reference compound]", "values": [{"measurement": "mechanical nociceptive threshold after chemotherapy", "setting": "[1]", "value": "decreased mechanical nociceptive threshold"}]}
{"compound": "O=C1[O][Pt]2([NH][C@@H]3CCCC[C@H]3[NH]2)[O]C1=O", "note": "[Oxaliplatin, oxaliplatin, reference compound]", "values": [{"measurement": "mechanical nociceptive threshold after chemotherapy", "setting": "[2]; male rats, oxaliplatin 2 mg/kg i.v., day 7", "value": "decreased mechanical nociceptive threshold"}]}
{"compound": "hyaluronan [low molecular weight hyaluronan, reference compound]", "values": [{"measurement": "nociceptive effect of intradermal injection", "setting": "rats", "value": "induced hyperalgesia"}]}
{"compound": "CCCCC[C@H](O)/C=C/[C@H]1[C@H](O)CC(=O)[C@@H]1C/C=C\\CCCC(=O)O", "note": "[PGE2, prostaglandin E2, reference compound]", "values": [{"measurement": "mechanical hyperalgesia after intradermal PGE2", "setting": "[3]", "value": "produced robust mechanical hyperalgesia"}]}
{"compound": "hyaluronan [70-120 kDa hyaluronan]", "values": [{"measurement": "CIPN hyperalgesia, effect of hyaluronan molecular weight range", "setting": "[2]", "value": "did not attenuate CIPN hyperalgesia"}]}
{"compound": "hyaluronan [300-500 kDa hyaluronan]", "values": [{"measurement": "CIPN hyperalgesia, effect of hyaluronan molecular weight range", "setting": "[2]", "value": "produced robust anti-hyperalgesia, of similar magnitude and duration"}]}
{"compound": "hyaluronan [1500-1750 kDa hyaluronan]", "values": [{"measurement": "CIPN hyperalgesia, effect of hyaluronan molecular weight range", "setting": "[2]", "value": "produced robust anti-hyperalgesia, of similar magnitude and duration"}]}
{"compound": "hyaluronan [150-300 kDa hyaluronan]", "values": [{"measurement": "CIPN hyperalgesia, effect of hyaluronan molecular weight range", "setting": "[2]", "value": "produced robust anti-hyperalgesia, of similar magnitude and duration"}]}
{"compound": "hyaluronan", "values": [{"measurement": "number of 5-HT scratches over 40 min", "setting": "[4]", "value": "significantly attenuated the number of 5-HT scratches"}]}
{"compound": "CC(=O)O[C@H]1C(=O)[C@@]2(C)[C@H]([C@H](OC(=O)c3ccccc3)[C@]3(O)C[C@H](OC(=O)[C@H](O)[C@@H](NC(=O)c4ccccc4)c4ccccc4)C(C)=C1C3(C)C)[C@]1(OC(C)=O)CO[C@@H]1C[C@@H]2O", "note": "[Paclitaxel, paclitaxel, reference compound]", "values": [{"measurement": "mechanical nociceptive threshold after chemotherapy", "setting": "[5]", "value": "decreased mechanical nociceptive threshold"}]}
